Results from patent publication EP0255343A2, “L-aspartylfenchylamino alcohol derivatives” (priority 1986, dated 1988).
Residues, ends and D or L forms follow the SMILES beside them.

Legend:
[1] = Sweetness threshold values determined by a limit method by a panel of 5 skilled flavorists; type: in vivo; details: for Taste intensity Threshold Values (%): dissolved in water, limit method, panel of 5 skilled flavorists; for Degree of Sweetness (time): relative to sucrose = 1
[2] = at 80°C and at a pH of 4; cited from earlier work

Compound	Taste intensity Threshold Values (%) [1] [%]	Degree of Sweetness (time) [1] [time]	stability [2]
3-N-(L-aspartyl)amino-1-fenchyl-2-butanol [Compound A]	0.001	600	–
3-N-(L-aspartyl)amino-4-fenchyl-2-butanol [Compound B]	0.0012	500	–
COC(=O)C(NC(=O)[C@@H](N)CC(=O)O)C(=O)OC1C2(C)CCC(C2)C1(C)C (mixture of isomers) [L-aspartyl-DL-aminomalonic acid methyl fenchyl diester]	–	–	lower than APM
COC(=O)[C@H](Cc1ccccc1)NC(=O)[C@@H](N)CC(=O)O [APM, L-aspartyl-L-phenylalanine methyl ester] (H-Asp-Phe-OMe)	0.004	150	–
OC[C@H]1O[C@@](CO)(O[C@H]2O[C@H](CO)[C@@H](O)[C@H](O)[C@H]2O)[C@@H](O)[C@@H]1O [Sucrose, sucrose]	0.6	–	–
